Test results: patent US20240109917A1 (ACTELION PHARMACEUTICALS LTD, priority 2020, published 2024)

Tests used:
[1] = target: Tb-labeled inactive PDGFRβ (Homo sapiens (Human), UniProt P09619); test: PDGFRβ LanthaScreen Assay; format: binding; details: read-out: PDGFR Lantha IC50
PDGFRβ = PDGFRβ (Rattus norvegicus (Rat), UniProt Q05030); test: PDGFRβ Cellular Assay (PDGFRb P-Y751 HTRF in A10 cells stimulated with PDGF-BB); format: cell-based; details: read-out: PDGFR Cellular IC50
How it was run: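 Phospho-Y751 PDGFRβ was measured by HTRF in lysates of A10 rat cells. Cells received compound for 3 hours before PDGF-BB stimulation (100 ng/mL working stock).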

VEGFR2, unphosphorylated = VEGFR2, unphosphorylated (Homo sapiens (Human), UniProt P35968); test: VEGFR ADP GLO Assay; format: biochemical
Chain of VEGFR2, unphosphorylated (P35968 20-1356): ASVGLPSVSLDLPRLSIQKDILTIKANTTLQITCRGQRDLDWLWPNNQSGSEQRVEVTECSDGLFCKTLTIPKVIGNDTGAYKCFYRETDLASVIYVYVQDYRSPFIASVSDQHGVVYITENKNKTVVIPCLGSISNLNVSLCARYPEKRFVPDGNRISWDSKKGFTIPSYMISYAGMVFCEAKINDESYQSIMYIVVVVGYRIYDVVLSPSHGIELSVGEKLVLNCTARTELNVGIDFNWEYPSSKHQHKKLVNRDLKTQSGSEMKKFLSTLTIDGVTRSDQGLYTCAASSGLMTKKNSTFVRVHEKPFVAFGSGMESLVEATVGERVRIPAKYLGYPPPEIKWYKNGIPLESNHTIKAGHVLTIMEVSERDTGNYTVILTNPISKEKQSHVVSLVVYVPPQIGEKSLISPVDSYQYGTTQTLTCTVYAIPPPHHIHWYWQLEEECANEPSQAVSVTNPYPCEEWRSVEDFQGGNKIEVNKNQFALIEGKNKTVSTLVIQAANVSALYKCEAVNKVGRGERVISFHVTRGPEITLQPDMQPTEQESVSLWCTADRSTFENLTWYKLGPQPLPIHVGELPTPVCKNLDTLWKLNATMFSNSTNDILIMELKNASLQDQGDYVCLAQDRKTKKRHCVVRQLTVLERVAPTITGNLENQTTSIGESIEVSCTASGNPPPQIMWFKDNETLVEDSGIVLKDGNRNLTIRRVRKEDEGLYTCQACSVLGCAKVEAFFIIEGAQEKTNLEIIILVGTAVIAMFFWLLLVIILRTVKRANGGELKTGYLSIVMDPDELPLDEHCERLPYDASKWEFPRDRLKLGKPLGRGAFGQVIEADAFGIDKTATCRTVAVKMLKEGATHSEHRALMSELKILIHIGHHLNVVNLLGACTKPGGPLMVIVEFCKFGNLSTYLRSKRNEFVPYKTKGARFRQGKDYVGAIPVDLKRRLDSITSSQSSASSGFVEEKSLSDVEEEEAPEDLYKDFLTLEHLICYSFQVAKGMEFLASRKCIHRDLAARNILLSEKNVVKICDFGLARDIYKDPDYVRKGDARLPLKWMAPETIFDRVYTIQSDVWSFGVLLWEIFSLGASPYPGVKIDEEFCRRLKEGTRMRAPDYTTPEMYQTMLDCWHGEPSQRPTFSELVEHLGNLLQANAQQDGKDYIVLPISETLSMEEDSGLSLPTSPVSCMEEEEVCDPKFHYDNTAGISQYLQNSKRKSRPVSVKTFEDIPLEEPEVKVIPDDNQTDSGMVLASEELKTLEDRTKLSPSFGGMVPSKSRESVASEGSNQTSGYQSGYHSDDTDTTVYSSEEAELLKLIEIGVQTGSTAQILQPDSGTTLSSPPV

Chain of PDGFRβ (Q05030 32-1097): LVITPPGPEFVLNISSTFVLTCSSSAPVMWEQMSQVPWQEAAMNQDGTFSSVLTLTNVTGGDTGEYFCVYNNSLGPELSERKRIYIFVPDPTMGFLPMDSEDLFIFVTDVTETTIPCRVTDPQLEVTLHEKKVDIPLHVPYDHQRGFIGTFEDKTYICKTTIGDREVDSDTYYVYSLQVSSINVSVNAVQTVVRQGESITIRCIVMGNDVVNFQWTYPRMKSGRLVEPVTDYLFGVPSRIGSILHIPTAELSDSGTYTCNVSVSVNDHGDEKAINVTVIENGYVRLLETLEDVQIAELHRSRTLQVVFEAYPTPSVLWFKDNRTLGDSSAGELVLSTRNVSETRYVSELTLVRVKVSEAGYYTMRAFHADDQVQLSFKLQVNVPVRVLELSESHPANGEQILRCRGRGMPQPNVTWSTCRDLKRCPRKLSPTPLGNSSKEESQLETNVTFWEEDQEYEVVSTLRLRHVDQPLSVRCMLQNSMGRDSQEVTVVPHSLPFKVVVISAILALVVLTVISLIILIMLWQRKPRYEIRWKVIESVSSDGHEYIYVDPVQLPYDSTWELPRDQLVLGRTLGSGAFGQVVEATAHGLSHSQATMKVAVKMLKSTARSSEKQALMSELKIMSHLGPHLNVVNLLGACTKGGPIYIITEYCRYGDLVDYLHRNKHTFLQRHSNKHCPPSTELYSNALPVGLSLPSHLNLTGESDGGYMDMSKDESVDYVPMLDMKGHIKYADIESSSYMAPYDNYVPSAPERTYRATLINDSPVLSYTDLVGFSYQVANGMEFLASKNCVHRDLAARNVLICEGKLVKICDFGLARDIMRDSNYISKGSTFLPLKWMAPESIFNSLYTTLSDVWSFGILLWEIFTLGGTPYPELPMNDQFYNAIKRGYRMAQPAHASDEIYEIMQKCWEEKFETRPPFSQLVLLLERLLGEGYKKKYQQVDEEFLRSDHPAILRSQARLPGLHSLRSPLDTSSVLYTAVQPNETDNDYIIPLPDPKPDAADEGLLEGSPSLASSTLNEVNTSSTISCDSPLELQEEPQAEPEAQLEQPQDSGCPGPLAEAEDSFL
Chain of Tb-labeled inactive PDGFRβ (P09619 33-1106): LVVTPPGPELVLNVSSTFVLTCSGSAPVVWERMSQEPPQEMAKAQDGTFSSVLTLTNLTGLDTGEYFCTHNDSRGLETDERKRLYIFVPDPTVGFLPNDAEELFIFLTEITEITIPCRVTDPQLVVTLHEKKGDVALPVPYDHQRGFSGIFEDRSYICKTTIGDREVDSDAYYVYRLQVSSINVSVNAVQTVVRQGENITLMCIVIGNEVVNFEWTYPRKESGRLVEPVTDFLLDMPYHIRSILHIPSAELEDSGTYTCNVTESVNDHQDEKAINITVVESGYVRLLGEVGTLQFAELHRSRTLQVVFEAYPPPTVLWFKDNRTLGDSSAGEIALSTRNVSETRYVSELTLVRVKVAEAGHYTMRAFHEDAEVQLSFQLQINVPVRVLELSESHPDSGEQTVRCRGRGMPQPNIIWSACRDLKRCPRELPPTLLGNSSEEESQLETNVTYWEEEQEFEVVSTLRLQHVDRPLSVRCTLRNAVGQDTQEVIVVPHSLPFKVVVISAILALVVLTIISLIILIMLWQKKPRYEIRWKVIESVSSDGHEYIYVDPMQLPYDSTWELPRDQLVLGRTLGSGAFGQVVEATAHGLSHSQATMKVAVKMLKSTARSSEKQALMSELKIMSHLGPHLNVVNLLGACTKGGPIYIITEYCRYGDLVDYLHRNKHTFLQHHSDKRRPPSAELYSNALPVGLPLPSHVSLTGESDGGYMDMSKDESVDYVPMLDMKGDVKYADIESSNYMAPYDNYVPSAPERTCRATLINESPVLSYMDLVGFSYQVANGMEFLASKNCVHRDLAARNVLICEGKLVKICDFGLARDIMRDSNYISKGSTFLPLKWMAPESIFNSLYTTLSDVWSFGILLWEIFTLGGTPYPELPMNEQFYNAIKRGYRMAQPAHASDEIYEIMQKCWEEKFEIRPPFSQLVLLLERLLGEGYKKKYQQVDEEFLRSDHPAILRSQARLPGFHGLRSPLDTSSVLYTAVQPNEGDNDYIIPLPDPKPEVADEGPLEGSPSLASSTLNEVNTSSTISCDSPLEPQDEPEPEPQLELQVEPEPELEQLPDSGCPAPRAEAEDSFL

Row | SMILES | IC50 [1] [nM] | IC50 (PDGFRβ) [nM] | IC50 (VEGFR2, unphosphorylated) [nM]
1 | COCCn1cc(-c2cn3ncc(C(=O)Nc4cc(NC(=O)CN5CC6CCC5CC6)cnc4C)c3s2)cn1 [Example 331, N-(5-(2-(2-azabicyclo[2.2.2]octan-2-yl)acetamido)-2-methylpyridin-3-yl)-2-(1-(2-methoxyethyl)-1H-pyrazol-4-yl)pyrazolo[5,1-b]thiazole-7-carboxamide] | 3.3 | 2.7 | > 7500
2 | COc1ncccc1-c1cn2ncc(C(=O)Nc3cc(NC(=O)CN4CC5(CCOCC5)C4)cnc3C)c2s1 [Example 403, N-(5-(2-(7-oxa-2-azaspiro[3.5]nonan-2-yl)acetamido)-2-methylpyridin-3-yl)-2-(2-methoxypyridin-3-yl)pyrazolo[5,1-b]thiazole-7-carboxamide carboxamide] | 1.3 | 3.3 | > 7500
3 | Cc1ncc(C(=O)NCCN2CCCC2(C)C)cc1NC(=O)c1cnn2cc(-c3cnn(Cc4cc(O)no4)c3)sc12 [Example 363, N-(5-((2-(2,2-dimethylpyrrolidin-1-yl)ethyl)carbamoyl)-2-methylpyridin-3-yl)-2-(1-((3-hydroxyisoxazol-5-yl)methyl)-1H-pyrazol-4-yl)pyrazolo[5,1-b]thiazole-7-carboxamide] | 14.1 | > 2000 | > 7500
4 | COc1ccncc1-c1cn2ncc(C(=O)Nc3cc(NC(=O)CN4C[C@H](C)O[C@@H](C)C4)cnc3C)c2s1 (relative stereo) [Example 385, N-(5-(2-(trans-2,6-dimethylmorpholino)acetamido)-2-methylpyridin-3-yl)-2-(4-methoxypyridin-3-yl)pyrazolo[5,1-b]thiazole-7-carboxamide] | 4.9 | 9.5 | > 833
5 | Cc1ncc(NC(=O)CN2CC3(CCOCC3)C2)cc1NC(=O)c1cnn2cc(-c3cnn4c3OCCC4)sc12 [Example 406, N-(5-(2-(7-oxa-2-azaspiro[3.5]nonan-2-yl)acetamido)-2-methylpyridin-3-yl)-2-(6,7-dihydro-5H-pyrazolo[5,1-b][1,3]oxazin-3-yl)pyrazolo[5,1-b]thiazole-7-carboxamide] | 2.3 | 18.9 | > 7500
6 | Cc1ncc(NC(=O)CN2C[C@H](C)O[C@@H](C)C2)cc1NC(=O)c1cnn2cc(-c3c[nH]nc3C)sc12 (relative stereo) [Example 371, N-(5-(2-(trans-2,6-dimethylmorpholino)acetamido)-2-methylpyridin-3-yl)-2-(3-methyl-1H-pyrazol-4-yl)pyrazolo[5,1-b]thiazole-7-carboxamide] | 3 | 29.3 | > 2500
7 | COc1ncccc1-c1cn2ncc(C(=O)Nc3cc(NC(=O)CN4CC(F)C4)cnc3C)c2s1 [Example 402, N-(5-(2-(3-fluoroazetidin-1-yl)acetamido)-2-methylpyridin-3-yl)-2-(2-methoxypyridin-3-yl)pyrazolo[5,1-b]thiazole-7-carboxamide] | 2.7 | 5.4 | > 7500
8 | Cc1ncc(NC(=O)[C@@H]2CCCN2C(C)C)cc1NC(=O)c1cnn2cc(-c3cnn4c3OCCC4)sc12 [Example 346, (S)-2-(6,7-dihydro-5H-pyrazolo[5,1-b][1,3]oxazin-3-yl)-N-(5-(1-isopropylpyrrolidine-2-carboxamido)-2-methylpyridin-3-yl)pyrazolo[5,1-b]thiazole-7-carboxamide] | 6.5 | 6.8 | > 7500
9 | COc1cccc(-c2cn3ncc(C(=O)Nc4cc(NC(=O)CN5CC(C)(C)C5)cnc4C)c3s2)n1 [Example 394, N-(5-(2-(3,3-dimethylazetidin-1-yl)acetamido)-2-methylpyridin-3-yl)-2-(6-methoxypyridin-2-yl)pyrazolo[5,1-b]thiazole-7-carboxamide] | 1.2 | 1.8 | > 7500
